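Tested at 5 concentrations; 48 h exposure; 96-well plates; endpoints linearly interpolated, else capped at highest concentration. GI50 = concentration required for 50% inhibition of growth.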 Active and inactive are the calls of the source. No stated cut-off is given here; in the data, active = GI50 up to about 1.1 µM and inactive = higher.
Columns and labels:
Experiment in all cases: NCI tumour cell line growth inhibition, 48 h
A549 = tested on: A549
HCC 2998 = tested on: HCC 2998
HCT-15 = tested on: HCT-15
HL-60 = tested on: HL-60
Hs-578T = tested on: Hs-578T
K562 = tested on: K562
NCI-H23 = tested on: NCI-H23
NCI/ADR-RES = tested on: NCI/ADR-RES
RPMI-8226 = tested on: RPMI-8226
RXF 393 = tested on: RXF 393
SF-295 = tested on: SF-295
SF-539 = tested on: SF-539
SK-MEL-5 = tested on: SK-MEL-5
SW-620 = tested on: SW-620
UACC-257 = tested on: UACC-257
CAKI-1 = tested on: CAKI-1
LOX IMVI = tested on: LOX IMVI
NCI-H522 = tested on: NCI-H522
OVCAR-3 = tested on: OVCAR-3
PC-3 = tested on: PC-3

| Structure (SMILES) | GI50 (A549) | GI50 (HCC 2998) | GI50 (HCT-15) [µM] | GI50 (HL-60) | GI50 (Hs-578T) | GI50 (K562) | GI50 (NCI-H23) | GI50 (NCI/ADR-RES) | GI50 (RPMI-8226) | GI50 (RXF 393) | GI50 (SF-295) | GI50 (SF-539) | GI50 (SK-MEL-5) | GI50 (SW-620) | GI50 (UACC-257) | GI50 (CAKI-1) | GI50 (LOX IMVI) | GI50 (NCI-H522) | GI50 (OVCAR-3) | GI50 (PC-3) |
| --- | --- | --- | --- | --- | --- | --- | --- | --- | --- | --- | --- | --- | --- | --- | --- | --- | --- | --- | --- | --- |
| N#CCCC(CC#N)N1CCN(CCO)CC1 (configuration not stated) | > 100 µM (inactive) | > 100 µM (inactive) | > 100 | > 100 µM (inactive) | 61.4 µM (inactive) | > 100 µM (inactive) | > 100 µM (inactive) | > 100 µM (inactive) | > 100 µM (inactive) | > 100 µM (inactive) | > 100 µM (inactive) | > 100 µM (inactive) | > 100 µM (inactive) | > 100 µM (inactive) | > 100 µM (inactive) |  |  |  |  |  |
| Nc1ccccc1-n1c2c(c3ccccc3c1=O)C(=O)c1ccccc1-2 | 11.5 µM (inactive) | 21.8 µM (inactive) | 38 | 0.046 µM (active) |  | > 100 µM (inactive) | 7.5 µM (inactive) | 14.6 µM (inactive) | 60.1 µM (inactive) |  | 9.1 µM (inactive) | 3.13 µM (inactive) | 10.4 µM (inactive) | 14.5 µM (inactive) | 35.9 µM (inactive) | 16.7 µM (inactive) | 12.5 µM (inactive) | 6.58 µM (inactive) | 21.8 µM (inactive) | 16.1 µM (inactive) |
| O=C(CCCn1ccnc1[N+](=O)[O-])NCCn1cnc([N+](=O)[O-])n1 | > 100 µM (inactive) |  | > 100 | > 100 µM (inactive) | > 100 µM (inactive) | > 100 µM (inactive) | > 100 µM (inactive) | > 100 µM (inactive) | > 100 µM (inactive) | > 100 µM (inactive) | > 100 µM (inactive) | > 100 µM (inactive) | > 100 µM (inactive) | > 100 µM (inactive) | > 100 µM (inactive) | > 100 µM (inactive) | > 100 µM (inactive) | > 100 µM (inactive) | > 100 µM (inactive) | > 100 µM (inactive) |
| Cc1cc(C)nc(NS(=O)(=O)c2ccc(NC(=O)NC(F)(F)F)cc2)n1 | > 100 µM (inactive) | > 100 µM (inactive) | > 100 | > 100 µM (inactive) | > 100 µM (inactive) | > 100 µM (inactive) | > 100 µM (inactive) | > 100 µM (inactive) | > 100 µM (inactive) | > 100 µM (inactive) |  | > 100 µM (inactive) | > 100 µM (inactive) | > 100 µM (inactive) | > 100 µM (inactive) | 1.95 µM (inactive) | > 100 µM (inactive) |  |  | > 100 µM (inactive) |
| COc1ccc(NCc2cnc3nc(N)nc(N)c3c2C)cc1 | 0.303 µM (active) | 12.7 µM (inactive) | 0.443 |  | 59.8 µM (inactive) | 0.0486 µM (active) | 0.628 µM (active) | > 100 µM (inactive) | 5.96 µM (inactive) | 43.5 µM (inactive) | 0.41 µM (active) | 0.7 µM (active) | 0.419 µM (active) | 0.914 µM (active) | 2.58 µM (inactive) | 6.55 µM (inactive) | 0.316 µM (active) | 5.52 µM (inactive) | 28.4 µM (inactive) |  |
| C=C1C(O)C[C@H](OC(C)=O)[C@]2(C)C1C(OC(C)=O)[C@]1(C(C)(C)O)CC(O)C(C)=C1[C@@H](OC(=O)c1ccccc1)C2OC(C)=O (some centres not stated) | > 10 µM (inactive) |  | > 10 | > 10 µM (inactive) | > 10 µM (inactive) | > 10 µM (inactive) | > 10 µM (inactive) | > 10 µM (inactive) | > 10 µM (inactive) | > 10 µM (inactive) | > 10 µM (inactive) | > 10 µM (inactive) | > 10 µM (inactive) | > 10 µM (inactive) | > 10 µM (inactive) | > 10 µM (inactive) | > 10 µM (inactive) | > 10 µM (inactive) | > 10 µM (inactive) | > 10 µM (inactive) |
| O=C(O)CCC(NC(=O)c1ccc(CNc2nc3cc(C(F)(F)F)ccc3nc2C(=O)O)cc1)C(=O)O (configuration not stated) | > 100 µM (inactive) | > 100 µM (inactive) | > 100 | > 100 µM (inactive) |  | > 100 µM (inactive) | > 100 µM (inactive) | > 100 µM (inactive) |  | > 100 µM (inactive) | > 100 µM (inactive) | > 100 µM (inactive) |  | > 100 µM (inactive) | > 100 µM (inactive) | > 100 µM (inactive) | > 100 µM (inactive) | > 100 µM (inactive) | > 100 µM (inactive) | > 100 µM (inactive) |
| COc1cc2c(cc1OC)-c1[nH]c3ccc(C#N)cc3c1CC(=O)N2 | 5.26 µM (inactive) |  | 4.02 | 3.07 µM (inactive) | 0.861 µM (active) |  | 12.2 µM (inactive) | > 100 µM (inactive) |  |  | 6.14 µM (inactive) | 0.521 µM (active) | 3.23 µM (inactive) | 1.03 µM (active) | > 52 µM (inactive) | 1.56 µM (inactive) | 2.09 µM (inactive) |  | 1.42 µM (inactive) | 57.5 µM (inactive) |
| Oc1ccc2c(c1)c1c(n2CCN2CCOCC2)-c2ccccc2CC1 |  |  | 25.6 | 42.3 µM (inactive) | 20.6 µM (inactive) | 27.9 µM (inactive) | 27.8 µM (inactive) | 23.1 µM (inactive) | 29.8 µM (inactive) | 29.6 µM (inactive) | 36.4 µM (inactive) | 21.3 µM (inactive) |  | 30.1 µM (inactive) | 32.9 µM (inactive) | 33.7 µM (inactive) | 23.6 µM (inactive) |  | 22 µM (inactive) | 29.2 µM (inactive) |
| N#Cc1c(-c2ccccc2)c(/C=N/c2ccc(F)cc2)c(=O)n2c1[nH]c1ccccc12 | 19.7 µM (inactive) | 21.2 µM (inactive) | 19.7 |  |  |  | 37 µM (inactive) | 21 µM (inactive) | 3.06 µM (inactive) | 22.5 µM (inactive) | 18.5 µM (inactive) | 30.2 µM (inactive) | 25.6 µM (inactive) | 29.5 µM (inactive) | 28.5 µM (inactive) | 13.6 µM (inactive) | 23.8 µM (inactive) | 16 µM (inactive) | 19.7 µM (inactive) | 28.6 µM (inactive) |
| CN1C(=O)C2CCCC(=O)N2c2cccnc21 (configuration not stated) | > 100 µM (inactive) | > 100 µM (inactive) | > 100 | > 100 µM (inactive) | > 100 µM (inactive) | > 100 µM (inactive) | > 100 µM (inactive) | > 100 µM (inactive) | > 100 µM (inactive) |  | > 100 µM (inactive) | > 100 µM (inactive) | > 100 µM (inactive) | > 100 µM (inactive) | > 100 µM (inactive) | > 100 µM (inactive) | > 100 µM (inactive) | > 100 µM (inactive) | > 100 µM (inactive) |  |
| Cc1c(NC(=O)c2cc([N+](=O)[O-])cc([N+](=O)[O-])c2)c(=O)n(-c2ccccc2)n1C | > 100 µM (inactive) |  | 83.9 | > 100 µM (inactive) | > 100 µM (inactive) | > 100 µM (inactive) | > 100 µM (inactive) | > 100 µM (inactive) | > 100 µM (inactive) | > 100 µM (inactive) |  | 69.8 µM (inactive) | > 100 µM (inactive) | > 100 µM (inactive) | 32.8 µM (inactive) | > 100 µM (inactive) | > 100 µM (inactive) |  | 29.9 µM (inactive) | 49.8 µM (inactive) |
| NC(=O)C1=NNc2ccccc2C(=O)N1c1ccccc1 | > 100 µM (inactive) |  | > 100 |  | > 100 µM (inactive) |  |  | > 100 µM (inactive) | > 100 µM (inactive) | > 100 µM (inactive) | > 100 µM (inactive) | > 100 µM (inactive) | > 100 µM (inactive) | > 100 µM (inactive) | > 100 µM (inactive) | > 100 µM (inactive) | > 100 µM (inactive) | > 100 µM (inactive) | > 100 µM (inactive) | > 100 µM (inactive) |
| CN1CC=C(OP(=O)(NCc2ccccc2)N(CCCl)CCCl)CC1 (configuration not stated) |  | > 100 µM (inactive) | > 100 | > 100 µM (inactive) | > 100 µM (inactive) | > 100 µM (inactive) | > 100 µM (inactive) | > 100 µM (inactive) | > 100 µM (inactive) | 40.9 µM (inactive) | > 100 µM (inactive) | > 100 µM (inactive) |  | > 100 µM (inactive) | 70.5 µM (inactive) | > 100 µM (inactive) | > 100 µM (inactive) |  | > 100 µM (inactive) | > 100 µM (inactive) |
| O=c1[nH]nc(-c2ccccc2)c2[nH]c(-c3ccccc3)cc12 | > 100 µM (inactive) |  | 68.5 | > 100 µM (inactive) | > 100 µM (inactive) | 50.8 µM (inactive) | > 100 µM (inactive) | > 100 µM (inactive) | 88.3 µM (inactive) | > 100 µM (inactive) | > 100 µM (inactive) |  |  | > 100 µM (inactive) |  | > 100 µM (inactive) | > 100 µM (inactive) |  | > 100 µM (inactive) |  |
| C=Cc1ccccc1C1C(C(=O)OCC)=C(C)N=C2OC(C(=O)OC)C(=O)N21 (configuration not stated) | > 100 µM (inactive) | > 100 µM (inactive) | > 100 | 87.5 µM (inactive) |  | > 100 µM (inactive) | > 100 µM (inactive) | > 100 µM (inactive) | > 100 µM (inactive) | > 100 µM (inactive) | > 100 µM (inactive) | > 100 µM (inactive) | > 100 µM (inactive) | > 100 µM (inactive) | > 100 µM (inactive) | > 100 µM (inactive) | > 100 µM (inactive) | > 100 µM (inactive) | > 100 µM (inactive) | > 100 µM (inactive) |
